{"source": "PubChem BioAssay (NCI)", "assay_in_all_cases": "DTP human tumour cell line panel, 384-well format", "key": {"[1]": {"test_system": "TK-10 renal"}, "[2]": {"test_system": "SK-MEL-28 melanoma"}, "[3]": {"test_system": "T-47D breast"}, "[4]": {"test_system": "CAKI-1 renal"}, "[5]": {"test_system": "UACC-257 melanoma"}, "[6]": {"test_system": "A498 renal"}, "[7]": {"test_system": "NCI-H226 lung"}, "[8]": {"test_system": "MDA-MB-231 breast"}, "[9]": {"test_system": "OVCAR-5 ovarian"}, "[10]": {"test_system": "K-562 leukemia"}, "[11]": {"test_system": "SW-620 colon"}, "[12]": {"test_system": "OVCAR-4 ovarian"}, "[13]": {"test_system": "NCI-H23 lung"}, "[14]": {"test_system": "HOP-92 NSCLC"}, "[15]": {"test_system": "SF-539 CNS"}, "[16]": {"test_system": "MDA-MB-435 melanoma"}, "[17]": {"test_system": "IGROV1 ovarian"}, "[18]": {"test_system": "A549 NSCLC"}, "[19]": {"test_system": "UO-31 renal"}, "[20]": {"test_system": "OVCAR-8 ovarian"}, "[21]": {"test_system": "MDA-MB-468 breast"}, "[22]": {"test_system": "KM12 colon"}, "[23]": {"test_system": "HCT-116 colon"}, "[24]": {"test_system": "M14 melanoma"}, "[25]": {"test_system": "PC-3 prostate"}, "[26]": {"test_system": "UACC-62 melanoma"}, "[27]": {"test_system": "HT29 colon"}, "[28]": {"test_system": "EKVX NSCLC"}, "[29]": {"test_system": "RXF 393 renal"}, "[30]": {"test_system": "HCT-15 colon"}, "[31]": {"test_system": "SF-268 CNS"}, "[32]": {"test_system": "SK-MEL-2 melanoma"}, "[33]": {"test_system": "HOP-62 NSCLC"}, "[34]": {"test_system": "ACHN renal"}, "[35]": {"test_system": "DU-145 prostate"}, "[36]": {"test_system": "OVCAR-3 ovarian"}, "[37]": {"test_system": "HS 578T breast"}, "[38]": {"test_system": "MALME-3M melanoma"}, "[39]": {"test_system": "U251 glioblastoma"}, "[40]": {"test_system": "MOLT-4 leukemia"}, "[41]": {"test_system": "SF-295 CNS"}, "[42]": {"test_system": "COLO 205 colon"}, "[43]": {"test_system": "BT-549 breast"}, "[44]": {"test_system": "HL-60(TB) leukemia"}, "[45]": {"test_system": "NCI-H522 lung"}, "[46]": {"test_system": "SNB-75 CNS"}, "[47]": {"test_system": "NCI-H322M lung"}, "[48]": {"test_system": "SR leukemia"}, "[49]": {"test_system": "SNB-19 CNS"}, "[50]": {"test_system": "MCF7 breast"}, "[51]": {"test_system": "SN12C renal"}}, "note": "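GI50 is the concentration that inhibits growth by half. Definition used: TGI = concentration required for complete inhibition of growth.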", "data": [{"smiles": "CNC(=O)c1cn(C[C@H](F)CCc2ccc(NC(=O)Cc3cc(OC4CC(F)(F)C4)cc(C)n3)nn2)nn1", "values": [{"measurement": "GI50", "setting": "[1]", "result": 0.31, "unit": "µM"}, {"measurement": "TGI", "setting": "[1]", "result": "> 100", "unit": "µM"}, {"measurement": "GI50", "setting": "[2]", "result": "> 100", "unit": "µM"}, {"measurement": "TGI", "setting": "[2]", "result": "> 100", "unit": "µM"}, {"measurement": "GI50", "setting": "[3]", "result": "> 100", "unit": "µM"}, {"measurement": "TGI", "setting": "[3]", "result": "> 100", "unit": "µM"}, {"measurement": "GI50", "setting": "[4]", "result": 0.38, "unit": "µM"}, {"measurement": "TGI", "setting": "[4]", "result": "> 100", "unit": "µM"}, {"measurement": "GI50", "setting": "[5]", "result": "> 100", "unit": "µM"}, {"measurement": "TGI", "setting": "[5]", "result": "> 100", "unit": "µM"}, {"measurement": "GI50", "setting": "[6]", "result": 0.163, "unit": "µM"}, {"measurement": "TGI", "setting": "[6]", "result": 0.492, "unit": "µM"}, {"measurement": "GI50", "setting": "[7]", "result": "> 100", "unit": "µM"}, {"measurement": "TGI", "setting": "[7]", "result": "> 100", "unit": "µM"}, {"measurement": "GI50", "setting": "[8]", "result": 0.389, "unit": "µM"}, {"measurement": "TGI", "setting": "[8]", "result": "> 100", "unit": "µM"}, {"measurement": "GI50", "setting": "[9]", "result": "> 100", "unit": "µM"}, {"measurement": "TGI", "setting": "[9]", "result": "> 100", "unit": "µM"}, {"measurement": "GI50", "setting": "[10]", "result": 85.1, "unit": "µM"}, {"measurement": "TGI", "setting": "[10]", "result": "> 100", "unit": "µM"}, {"measurement": "GI50", "setting": "[11]", "result": "> 100", "unit": "µM"}, {"measurement": "TGI", "setting": "[11]", "result": "> 100", "unit": "µM"}, {"measurement": "GI50", "setting": "[12]", "result": "> 100", "unit": "µM"}, {"measurement": "TGI", "setting": "[12]", "result": "> 100", "unit": "µM"}, {"measurement": "GI50", "setting": "[13]", "result": "> 100", "unit": "µM"}, {"measurement": "TGI", "setting": "[13]", "result": "> 100", "unit": "µM"}, {"measurement": "GI50", "setting": "[14]", "result": "> 100", "unit": "µM"}, {"measurement": "TGI", "setting": "[14]", "result": "> 100", "unit": "µM"}, {"measurement": "GI50", "setting": "[15]", "result": "> 100", "unit": "µM"}, {"measurement": "TGI", "setting": "[15]", "result": "> 100", "unit": "µM"}, {"measurement": "GI50", "setting": "[16]", "result": "> 100", "unit": "µM"}, {"measurement": "TGI", "setting": "[16]", "result": "> 100", "unit": "µM"}, {"measurement": "GI50", "setting": "[17]", "result": "> 100", "unit": "µM"}, {"measurement": "TGI", "setting": "[17]", "result": "> 100", "unit": "µM"}, {"measurement": "GI50", "setting": "[18]", "result": 0.0278, "unit": "µM"}, {"measurement": "TGI", "setting": "[18]", "result": 0.0879, "unit": "µM"}, {"measurement": "GI50", "setting": "[19]", "result": "> 100", "unit": "µM"}, {"measurement": "TGI", "setting": "[19]", "result": "> 100", "unit": "µM"}, {"measurement": "GI50", "setting": "[20]", "result": "> 100", "unit": "µM"}, {"measurement": "TGI", "setting": "[20]", "result": "> 100", "unit": "µM"}, {"measurement": "GI50", "setting": "[21]", "result": "> 100", "unit": "µM"}, {"measurement": "TGI", "setting": "[21]", "result": "> 100", "unit": "µM"}, {"measurement": "GI50", "setting": "[22]", "result": 0.946, "unit": "µM"}, {"measurement": "TGI", "setting": "[22]", "result": "> 100", "unit": "µM"}, {"measurement": "GI50", "setting": "[23]", "result": "> 100", "unit": "µM"}, {"measurement": "TGI", "setting": "[23]", "result": "> 100", "unit": "µM"}, {"measurement": "GI50", "setting": "[24]", "result": "> 100", "unit": "µM"}, {"measurement": "TGI", "setting": "[24]", "result": "> 100", "unit": "µM"}, {"measurement": "GI50", "setting": "[25]", "result": "> 100", "unit": "µM"}, {"measurement": "TGI", "setting": "[25]", "result": "> 100", "unit": "µM"}, {"measurement": "GI50", "setting": "[26]", "result": "> 100", "unit": "µM"}, {"measurement": "TGI", "setting": "[26]", "result": "> 100", "unit": "µM"}, {"measurement": "GI50", "setting": "[27]", "result": "> 100", "unit": "µM"}, {"measurement": "TGI", "setting": "[27]", "result": "> 100", "unit": "µM"}, {"measurement": "GI50", "setting": "[28]", "result": "> 100", "unit": "µM"}, {"measurement": "TGI", "setting": "[28]", "result": "> 100", "unit": "µM"}, {"measurement": "GI50", "setting": "[29]", "result": 0.0276, "unit": "µM"}, {"measurement": "TGI", "setting": "[29]", "result": 0.11, "unit": "µM"}, {"measurement": "GI50", "setting": "[30]", "result": "> 100", "unit": "µM"}, {"measurement": "TGI", "setting": "[30]", "result": "> 100", "unit": "µM"}, {"measurement": "GI50", "setting": "[31]", "result": 0.407, "unit": "µM"}, {"measurement": "TGI", "setting": "[31]", "result": "> 100", "unit": "µM"}, {"measurement": "GI50", "setting": "[32]", "result": 0.436, "unit": "µM"}, {"measurement": "TGI", "setting": "[32]", "result": "> 100", "unit": "µM"}, {"measurement": "GI50", "setting": "[33]", "result": 0.127, "unit": "µM"}, {"measurement": "TGI", "setting": "[33]", "result": 0.594, "unit": "µM"}, {"measurement": "GI50", "setting": "[34]", "result": "> 100", "unit": "µM"}, {"measurement": "TGI", "setting": "[34]", "result": "> 100", "unit": "µM"}, {"measurement": "GI50", "setting": "[35]", "result": 0.401, "unit": "µM"}, {"measurement": "TGI", "setting": "[35]", "result": 7.68, "unit": "µM"}, {"measurement": "GI50", "setting": "[36]", "result": "> 100", "unit": "µM"}, {"measurement": "TGI", "setting": "[36]", "result": "> 100", "unit": "µM"}, {"measurement": "GI50", "setting": "[37]", "result": 0.0721, "unit": "µM"}, {"measurement": "TGI", "setting": "[37]", "result": 0.533, "unit": "µM"}, {"measurement": "GI50", "setting": "[38]", "result": "> 100", "unit": "µM"}, {"measurement": "TGI", "setting": "[38]", "result": "> 100", "unit": "µM"}, {"measurement": "GI50", "setting": "[39]", "result": 0.119, "unit": "µM"}, {"measurement": "TGI", "setting": "[39]", "result": "> 100", "unit": "µM"}, {"measurement": "GI50", "setting": "[40]", "result": 66.8, "unit": "µM"}, {"measurement": "TGI", "setting": "[40]", "result": "> 100", "unit": "µM"}, {"measurement": "GI50", "setting": "[41]", "result": 1.51, "unit": "µM"}, {"measurement": "TGI", "setting": "[41]", "result": "> 100", "unit": "µM"}, {"measurement": "GI50", "setting": "[42]", "result": "> 100", "unit": "µM"}, {"measurement": "TGI", "setting": "[42]", "result": "> 100", "unit": "µM"}, {"measurement": "GI50", "setting": "[43]", "result": "> 100", "unit": "µM"}, {"measurement": "TGI", "setting": "[43]", "result": "> 100", "unit": "µM"}, {"measurement": "GI50", "setting": "[44]", "result": "> 100", "unit": "µM"}, {"measurement": "TGI", "setting": "[44]", "result": "> 100", "unit": "µM"}, {"measurement": "GI50", "setting": "[45]", "result": 0.31, "unit": "µM"}, {"measurement": "TGI", "setting": "[45]", "result": "> 100", "unit": "µM"}, {"measurement": "GI50", "setting": "[46]", "result": "> 100", "unit": "µM"}, {"measurement": "TGI", "setting": "[46]", "result": "> 100", "unit": "µM"}, {"measurement": "GI50", "setting": "[47]", "result": 0.0772, "unit": "µM"}, {"measurement": "TGI", "setting": "[47]", "result": 0.321, "unit": "µM"}, {"measurement": "GI50", "setting": "[48]", "result": 18.8, "unit": "µM"}, {"measurement": "TGI", "setting": "[48]", "result": "> 100", "unit": "µM"}, {"measurement": "GI50", "setting": "[49]", "result": "> 100", "unit": "µM"}, {"measurement": "TGI", "setting": "[49]", "result": "> 100", "unit": "µM"}, {"measurement": "GI50", "setting": "[50]", "result": "> 100", "unit": "µM"}, {"measurement": "TGI", "setting": "[50]", "result": "> 100", "unit": "µM"}, {"measurement": "GI50", "setting": "[51]", "result": 0.0398, "unit": "µM"}, {"measurement": "TGI", "setting": "[51]", "result": 0.32, "unit": "µM"}]}]}
